Consider 13 compounds from PubChem BioAssay (NCI).

Common to all, as to assay: NCI-60 cell line screen, 48 h
For assay [1], the system named is 786-0 renal.
For assay [2], the system named is A498 renal.
In assay [3] the test system is COLO 205 colon.
The test system of assay [4] is IGROV1 ovarian.
The subject of assay [5] is OVCAR-3 ovarian.
Assay [6] deals with OVCAR-4 ovarian.
Assay [7] relates to SNB-19 CNS.
In assay [8] the test system is SNB-75 CNS.
For assay [9], the system named is UACC-257 melanoma.
In assay [10] the test system is UO-31 renal.
The subject of assay [11] is HS 578T breast.
Assay [12] has as its system MDA-MB-435.

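Compound exposure: 48 hours, 5 concentrations, 96-well plates. At the GI50, growth is halved. TGI: concentration producing complete growth inhibition.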

For `O=C(N/C(=C\c1cccc([N+](=O)[O-])c1)c1nc2[nH]c(=S)[nH]c(=O)c2[nH]1)c1ccccc1`, the TGI in assay [1], in assay [2], in [3], in [4], in assay [5] and in assay [6] was over 100 µM throughout. The TGI in assay [7], in assay [8], in assay [9] and in [10] was over 100 µM each time.

Turning to `O=C(O)c1ccc([N+]2=Cn3c(nc4ccccc43)C2)cc1`, the TGI in assay [1], in [2], in [3], in [11], in [4] and in [12] was over 100 µM each time. For the same compound, the TGI in assay [5], in [6], in assay [7], in assay [8], in assay [9] and in assay [10] was over 100 µM throughout.

For `O=C(O)c1cc2cc(c1)N=Cc1ccccc1OCc1cccc(n1)COc1ccccc1C=N2`, the TGI in [1] is over 25 µM; in assay [2], over 25 µM; in assay [3], over 25 µM; in [11], 13.1 µM; in assay [4] it was over 25 µM; in [12], 8.25 µM. The TGI in assay [5] is 13.2 µM; in assay [6] it was over 25 µM; in [7], over 25 µM; in [8], over 25 µM; in [9] it was over 25 µM; in assay [10] it was over 25 µM.

As for `CC[C@H](Nc1nc(N)nc(C)c1C#N)c1nc2cccc(NCc3ccc(C(=O)NO)cc3)c2c(=O)n1-c1ccccc1`, the GI50 in [2] is 1.04 µM; in assay [3], 2.05 µM; in assay [11], 1.95 µM; in [5], 1.2 µM; in assay [6], 2.01 µM; in assay [8], 0.711 µM. Further, the GI50 in assay [9] was 1.94 µM. Also, the TGI stood at 2.42 µM in assay [2]; 5.31 µM in [3]; 6.08 µM in assay [11]; 3.26 µM in assay [5]; 7.52 µM in assay [6]; 3.97 µM in assay [8]. The TGI in [9] came to 6.2 µM.

As to `O=C1Nc2ccccc2S/C1=C\c1ccccc1C(F)(F)F`, the TGI in assay [1], in assay [3], in [11], in assay [4], in assay [12] and in assay [5] was over 100 µM each time. Moreover, the TGI in [6] was 49.4 µM; in assay [7], over 100 µM; in [8], 92.3 µM; in [9], over 100 µM; in assay [10], over 100 µM.

Take `CC(=O)O[C@H]1CC[C@@]2(C)C(=CC[C@@H]3[C@@H]2CC[C@]2(C)Nc4c(cnn4S(C)(=O)=O)C[C@@H]32)C1`: the TGI in [2], in assay [3], in assay [11], in assay [4], in [12] and in assay [5] was over 100 µM each time. Further, the TGI in assay [7], in [8] and in assay [10] was over 100 µM throughout.

Regarding `Cc1ccc([N+](=O)[O-])cc1NC(=O)C(=O)C(C(=O)c1ccccc1F)C1OC(=O)c2ccccc21` (stereo unspecified), the TGI in [2] was over 100 µM; in assay [3], over 100 µM; in [4] it was over 100 µM; in assay [6], over 100 µM; in [7], 75.5 µM; in assay [8], over 100 µM. In addition, the TGI in assay [9] and in [10] was over 100 µM each time.

For the compound `N=c1nc2n(cc1F)[C@@H]1O[C@H](CO)[C@@H](O)[C@@H]1O2`, the TGI in assay [1] is over 38.9 µM; in [2] it was over 100 µM; in assay [3], over 96.9 µM; in [11], over 100 µM; in assay [4], over 92.7 µM; in [12], over 100 µM. Also, the TGI in assay [5] is over 100 µM; in [6] it was over 100 µM; in [7], over 100 µM; in [8], over 95 µM; in assay [9], over 100 µM; in assay [10] it was over 42.6 µM.

With `NC(=S)Nc1cc(Cl)ccc1Cl`, the TGI in [2], in [3], in assay [4], in assay [5], in [6] and in assay [7] was over 100 µM each time. The TGI in [8], in assay [9] and in assay [10] was over 100 µM throughout.

On to `CCOC(=O)Nc1cc2c(c(N)n1)N=C(c1ccccc1)[C@H](C)N2`, for which the GI50 in assay [2] was under 0.0001 µM; in [6], 16.2 µM; in [8] it was 17.9 µM; in assay [10] it was 10.1 µM. Further, the TGI in assay [3] is under 0.0001 µM; in assay [4], over 100 µM; in assay [12] it was under 0.0001 µM; in assay [5], 0.016 µM; in [6] it was over 100 µM; in assay [7], 87.5 µM. Further, the TGI in assay [10] amounted to 44.5 µM.

Turning to `Oc1ccc2oc3c(O)c4ccccc4cc3c2c1`, the TGI in assay [1] is 20 µM; in [2], 9.33 µM; in [3], 28 µM; in assay [11], over 100 µM; in [4] it was 4.21 µM; in [12] it was 5.33 µM. Besides, the TGI in assay [5] was 15.1 µM; in [6], 13 µM; in [7], over 100 µM; in assay [9], over 100 µM; in [10], 15.8 µM.

For the compound `Cc1ccc(C[P+]2(c3ccccc3)CCCCC2)cc1`, the TGI in assay [1] was over 100 µM; in assay [2], over 100 µM; in [3], 30.2 µM; in [4], over 100 µM; in assay [6], over 100 µM; in assay [7] it was over 100 µM. The TGI in assay [8] was 76.9 µM; in assay [9], 32.6 µM; in assay [10] it was over 100 µM.

For the compound `Oc1c2c(c3c4c1N=CC=4CCN=3)-c1c(Br)cc(Br)cc1CCN2`, the TGI in [2] was 24.7 µM; in [3], 2.62 µM; in assay [4], 13.8 µM; in assay [6] it was 6.23 µM; in assay [7] it was over 35.6 µM; in assay [8] it was 22.6 µM. Further, the TGI in assay [9] was found to be 2.86 µM; in assay [10], 23.1 µM.
